The target in assay [1] is GABA-A receptor; anion channel. Description: In vitro affinity for BZD site on GABA-A receptor from rat cerebral cortex using radioligand [3H]flunitrazepam. The format is tissue-based.
For assay [2], the species on record is Mus musculus. Description: Effective dose required for inhibition of pentylenetetrazole (PTZ)-induced seizures in mice perorally; value ranges from 0.3 to 3. In kind it is functional. To be noted: po.
In assay [3] the target is T1, GABA-A receptor; anion channel (Rattus norvegicus) (UniProt O09028+P15431+P18506+P18508+P19969+P20236+P23574+P23576+P28471+P28473+P30191+P62813+P63079+P63138+Q91ZM7+Q9ES14). Description: Minimum effective dose required for anticonflict in rat intraperitoneally. The format is functional.
The species entered for assay [4] is Rattus norvegicus. Description: Minimum effective dose required for anticonflict in rat perorally; value ranges from 1 to 3. In kind it is functional. The settings on record: po, read-out: MED.
The target in assay [5] is T1, GABA-A receptor; anion channel (Rattus norvegicus). Description: Ratio of the binding in the absence and presence of GABA was determined. The format is protein-complex assay.
The subject of assay [6] is Mus musculus. Description: Effective dose required for inhibition of pentylenetetrazole (PTZ)-induced seizures in mice intraperitoneally. The format is functional. To be noted: ip.
The species named for assay [7] is Mus musculus. Description: Effective dose required for inhibition of pentylenetetrazole (PTZ)-induced seizures in mice perorally; value ranges from 3 to 30. The format is functional. To be noted: po.
The species named for assay [8] is Rattus norvegicus. Description: Minimum effective dose required for anticonflict in rat perorally. In kind it is functional. The settings on record: po, read-out: MED.
Assay [9] deals with Mus musculus. Description: In vivo effective dose required for inhibition of pentylenetetrazole (PTZ)-induced seizures in mice intraperitoneally. The settings on record: Mus musculus, ip; read-out: ED50. In kind it is functional.
Assay [10] has as its system Mus musculus. Description: In vivo effective dose required in vivo for inhibition of pentylenetetrazole (PTZ)-induced seizures in mice perorally. To be noted: po. In kind it is functional.
The test system of assay [11] is Mus musculus. Description: Effective dose required for motor impairment in the horizontal screen in mouse intraperitoneally. In kind it is functional. To be noted: Mus musculus, ip; read-out: ED50.
The species named for assay [12] is Mus musculus. Description: Effective dose required for motor impairment in the horizontal screen in mouse perorally. The format is functional. To be noted: Mus musculus, po; read-out: ED50.
For assay [13], the species on record is Mus musculus. Description: Effective dose required for inhibition of pentylenetetrazole (PTZ)-induced seizures in mice perorally. In kind it is functional. To be noted: po.
Assay [14] is filed under the species Mus musculus. Description: Ratio of effective dose required for motor impairment in the horizontal screen to the inhibition of pentylenetetrazole (PTZ)-induced seizures in mice. In kind it is functional.
The test system of assay [15] is Rattus norvegicus. Description: In vivo minimum effective dose required for anticonflict effect in rat perorally. The format is functional. The settings on record: Rattus norvegicus, po; read-out: MED.
Assay [16] deals with Rattus norvegicus. Description: In vivo minimum effective dose required for anticonflict in rat intraperitoneally. In kind it is functional. To be noted: Rattus norvegicus, ip; read-out: MED.
Assay [17] concerns Rattus norvegicus. Description: In vivo minimum effective dose required for potentiation of EtOH-induced sleep time in rat. In kind it is functional. The settings on record: Rattus norvegicus; read-out: MED.
The species named for assay [18] is Rattus norvegicus. Description: Ratio of minimum effective dose for potentiation of EtOH-induced sleep time to anticonflict effect in rat. The format is functional.
Assay [19] relates to Mus musculus. Description: In vivo effective dose required for inhibition of pentylenetetrazole (PTZ)-induced seizures in mice perorally. The format is functional. To be noted: po.
The test system of assay [20] is Mus musculus. Description: In vivo effective dose required or inhibition of pentylenetetrazole (PTZ)-induced seizures in mice intraperitoneally. The format is functional. To be noted: ip.
The species named for assay [21] is Mus musculus. Description: animal or person. To be noted: ip.
For assay [22], the species on record is Mus musculus. Description: animal or person. The settings on record: po.
Assay [23] is filed under the species Rattus norvegicus. Description: animal or person. To be noted: ip, read-out: MED.
Description: Minimum effective dose required for anticonflict in rat after intraperitoneal administration of the compound
Assay [24] is filed under the species Rattus norvegicus. Description: animal or person. To be noted: po, read-out: MED.
Description: Minimum effective dose required for anticonflict in rat after peroral administration of the compound

Some results are limits rather than exact numbers.

For the compound `CCOCN1C2=C(C(=O)Nc3ccc(O)cc3F)C(=O)CCN2c2ccc(F)cc21`, the IC50 (in general, the concentration at which inhibition is half-maximal) in assay [1] was 1.4 nM. For the same compound, the ED50 (usually the dose at which the effect has come halfway, by size or by number of responders) in the assay filed under Mus musculus [2] was 0.3 mg/kg. In addition, the MED in [3] turned out to be 1 mg/kg. The minimal effective dose in the assay filed under Rattus norvegicus [4] is 1 mg/kg. In assay [5], the GABA shift amounted to 2.
In assay [1], `CCOCN1C2=C(C(=O)Nc3ccc(OC(=O)OC)cc3F)C(=O)CCN2c2ccc(F)cc21` yielded an IC50 of 4.3 nM. In addition, the ED50 was 1 mg/kg in the assay with Mus musculus [6] and 3 mg/kg in the assay listed under Mus musculus [7]. The minimal effective dose in the assay filed under Rattus norvegicus [8] turned out to be 1 mg/kg. Further, the GABA shift in [5] came to 3.2.
`CCOCN1C2=C(C(=O)Nc3ccc(F)cc3F)C(=O)CCN2c2ccc(F)cc21`: the IC50 in [1] came to 1.2 nM. Besides, the ED50 in the assay on Mus musculus [9] was below 1 mg/kg; in the assay with Mus musculus [10], below 3 mg/kg; in the assay with Mus musculus [11], below 1 mg/kg; in the assay filed under Mus musculus [12] it was 10 mg/kg; in the assay on Mus musculus [6], at most 1 mg/kg; in the assay listed under Mus musculus [13] it was below 3 mg/kg. Further, the Ratio in the assay listed under Mus musculus [14] is 3; in the assay listed under Rattus norvegicus [18], 1. Further, the minimal effective dose with Rattus norvegicus [15], in the assay with Rattus norvegicus [16], in the assay on Rattus norvegicus [17] and in the assay listed under Rattus norvegicus [8] was 0.1 mg/kg in each case. Further, in assay [3], the MED came to 0.1 mg/kg. Also, the GABA shift in assay [5] is 2.
`CCOCN1C2=C(C(=O)Nc3ccccc3F)C(=O)CCN2c2ccc(F)cc21` had an IC50 in assay [1] of 0.1 nM. Besides, the ED50 with Mus musculus [19] was determined as 0.04 mg/kg; in the assay on Mus musculus [20], 0.01 mg/kg; with Mus musculus [11], 0.3 mg/kg; in the assay filed under Mus musculus [12], 27 mg/kg; in the assay with Mus musculus [6], 0.01 mg/kg; in the assay filed under Mus musculus [13] it was 0.04 mg/kg. The figures for the Ratio in the assay filed under Mus musculus [14] and in the assay filed under Rattus norvegicus [18] were 675 and 1, respectively. Besides, the minimal effective dose with Rattus norvegicus [15] came to 0.4 mg/kg; in the assay with Rattus norvegicus [16], 10 mg/kg; in the assay with Rattus norvegicus [17] it was 0.3 mg/kg; in the assay listed under Rattus norvegicus [8], 0.4 mg/kg. Also, in assay [3], the MED is 10 mg/kg. Besides, the GABA shift in [5] was 1.2.
For `CN1C(=O)CN=C(c2ccccc2)c2cc(Cl)ccc21` [DIAZEPAM], the ED50 in the assay on Mus musculus [9] amounted to 0.3 mg/kg; in the assay on Mus musculus [19], 0.5 mg/kg; with Mus musculus [11] it was 0.1 mg/kg; in the assay filed under Mus musculus [12] it was 6.3 mg/kg; in the assay filed under Mus musculus [21], 0.11 mg/kg; in the assay listed under Mus musculus [22], 0.5 mg/kg. For the same compound, the minimal effective dose in the assay on Rattus norvegicus [15] was 5 mg/kg; in the assay on Rattus norvegicus [16] it was 5 mg/kg; in the assay with Rattus norvegicus [17], 5 mg/kg; in the assay listed under Rattus norvegicus [23], 5 mg/kg; in the assay filed under Rattus norvegicus [24], above 10 mg/kg.

Source of the values: ChEMBL document CHEMBL1135951, “Potential anxiolytic agents. Part 4: novel orally-active N(5)-substituted pyrido[1,2-a]benzimidazoles with high GABA-A receptor affinity” (Bioorg Med Chem Lett, 2002).
